Source: patent publication US8357705B2 (priority 2008, dated 2013)

Assays:
[1] = tested on: sodium channel binding site 2; parameters: species or system rat

Structure (SMILES) | Inhibition (BTX) Mean [% at 10 μM] [1] [%] | melting point [°C]
CN(C)C(=O)[C@H](Cc1c[nH]c2ccccc12)NC1CCC(c2ccccc2)(N(C)C)CC1.Cl.Cl (stereo partly drawn) [Example 6, (S)-2-(4-(dimethylamino)-4-phenylcyclohexylamino)-3-(1H-indol-3-yl)-N,N-dimethylpropanamide dihydrochloride] | 15 | –
Cc1cnc([C@@H](Cc2c[nH]c3ccccc23)NC2CCC(c3ccccc3)(N(C)C)CC2)o1 (stereo partly shown) | – | 65 to 70
Cc1csc([C@@H](Cc2c[nH]c3ccccc23)NC2CCC(c3ccccc3)(N(C)C)CC2)n1 (stereo partly shown) | – | 71 to 74
CN(C)C1(c2ccccc2)CCC(N(C(=O)C(F)(F)F)C(Cc2c[nH]c3ccccc23)c2nnn[nH]2)CC1 (stereo not shown) | – | 195 to 228
